From patent US11078188B2, “Dihydroquinoxaline bromodomain recognition protein inhibitor, preparation method and use thereof” (SHANGHAI INSTITUTE OF MATERIA MEDICA, CHINESE ACADEMY OF …, priority 2017, dated 2021)

System: MM.1S nude mice xenografts
Assay: Growth of MM.1S nude mice xenografts in vivo
Design: species or system Balb/C nude mice
Conditions: for TV (mm^3, mean) d0: d0 (at start of administration)
Experimental: Balb/C nude mice (6 weeks, female, Beijing Huafukang Biotechnology Co., Ltd.) were purchased, and the animals were conditioned for about one week before the test. MM.1S cells were cultured in vitro, and the cells in logarithmic growth phase were resuspended in serum-free RPMI1640 medium to adjust the cell concentration. The cell suspension was subcutaneously injected into forefoot armpit of the Balb/C nude mice with a syringe, and each animal was injected with 150 μL (8.0×10^6/mouse). When the average tumor volume grew to about ˜150 mm^3, the animals were divided into 4 groups containing solvent control group, 50 mg/kg OTX-015 group, and 20 and 50 mg/kg compound 6 groups by the randomized block method and each group contained six animals. […] During the administration period, the tumor diameter was measured twice a week, the body weight of the animals was weighed, the living state of the animals was observed, and abnormal conditions were recorded.
The formula for calculating tumor volume (TV): TV=½×a×b^2, where a and b represent length and width, respectively.
The relative tumor volume (RTV) was calculated based on the measured results, and the calculation formula was: RTV=Vt/V0. Wherein V0 was the measured tumor volume at the time of administration by cage (ie, d0), and Vt was the tumor volume at each measurement.
The relative tumor proliferation rate T/C (%) was calculated based on the measured results, and the calculation formula was as follows: T/C (%)=(TRTV/CRTV)×100%, TRTV: treatment group RTV; CRTV: negative control group RTV.

For `Cc1ccc(-n2nc(C(=O)N3CCN(C)CC3)nc2-c2ccc3c(c2)N(C2CCCC2)[C@H](C)C(=O)N3C)cc1` [Example 6], the “RTV (mean SD)” value (20 mg/kg qd/14 po) was 584.14, the “T/C (%)” value (20 mg/kg qd/14 po) was 48.32% and the “TV (mm^3, mean) d0” value (20 mg/kg qd/14 po) was 184.28 mm^3. The “TV (mm^3, mean) d14” value (20 mg/kg qd/14 po) was 1024.45 mm^3, the “RTV (mean SD)” value (50 mg/kg qd/14 po) was 417.16 and the “T/C (%)” value (50 mg/kg qd/14 po) was 34.51%. The “TV (mm^3, mean) d0” value (50 mg/kg qd/14 po) was 185.34 mm^3, the “TV (mm^3, mean) d14” value (50 mg/kg qd/14 po) was 660.39 mm^3 and the “inhibitory effect on the growth of MM.1S nude mice xenografts (in words)” value (oral administration of 50 mg/kg per day) was “significant inhibitory effect”.
